Series [1] has as its system Molt-3 T-cells. Description: propidium iodide assay of growth and cytotoxicity in Molt-3 T-cells. It counts as cell-based, human. The following applies: tested 0.1-500 μM.
For series [2], the system named is Molt-3 T-cells/Calu-3 lung epithelial monolayers. Description: heterotypic adhesion of Molt-3 T-cells to Calu-3 lung epithelial monolayers. Format: cell-based, human. The following applies: for effect on adherence of Molt-3 T-cells to Calu-3 monolayers: IFN-γ-induced Calu-3, PMA-activated Molt-3. As for the experimental part:
Molt-3, Caco-2 and Calu-3 cell lines were obtained from the American Type Culture Collection (Rockville, Md.). Molt-3 and Caco-2 cells were maintained and grown using known methods. Briefly, the Caco-2 cell-line was grown as monolayers in Dulbecco's modified Eagle's medium (DMEM) with 25 mM glucose containing 10% FBS, 1% nonessential amino acids, 1 mM Na-pyruvate, 1% L-glutamine and […] of penicillin/streptomycin. Cells were grown in 75-cm^2 tissue culture flasks (Falcon) for maintenance purposes and in a 48-well cell culture cluster (Costar) for heterotypic-adhesion experiments. Before confluency was reached, Caco-2 cells were induced with 100 U/mL IFN-γ for 24 h to up-regulate the ICAM-1 expression. Calu-3, a lung epithelial cell line, was maintained in a 1:1 mixture of Ham's F12:DMEM containing 10% FBS and 100 μg/mL penicillin/streptomycin. Upon reaching 90% confluency (approximately 4-5 days), cells were subcultured at a 1:2 split ratio using 0.25% trypsin/0.1% EDTA. Calu-3 cells were induced with 500 U/mL IFN-γ for 48 h to up-regulate the ICAM-1 expression. All cell lines were grown in a 95% humidified/5% CO2 atmosphere at 37° C.
Heterotypic Adhesion Experiments with LFA-1 derived peptides—Two heterotypic cell adhesion systems were used in this work. The adhesion between Molt-3 T-cells/Calu-3 lung epithelial monolayers was used to assess the inhibitory activities of cLAB.L and cLAB.2L; Molt-3 T-cells/Caco-2 colon epithelial monolayers system was for cLAB.L and its derivatives. Briefly, Calu-3 or Caco-2 cell monolayers were pretreated with peptide solution prior to the adherence of fluorescence-labeled Molt-3 cells. […] Soluble lysates were transferred to 96-well (clear-bottom, black-sided) plates (Costar) for reading in a microplate fluorescence analyzer (Bio-Tek FL600) to give relative fluorescence (FL), i.e., the reading of fluorescence intensity of adherent corrected with the reading of cell monolayers only. Data were presented as the percentage of T-cell adherence calculated as follows: […]

For series [3], the system named is Molt-3 T-cells. Description: cells. To be noted: 72 h. It counts as cell-based, human. As for the experimental part:
(§1) The cytotoxicity of MTX-peptide conjugates was evaluated in different cell lines, lincluding Molt-3 and L1210 T-cells, and KB epithelial cells. […] After 72 h of growth, the relative numbers of viable cells were determined according to the manufacture's protocols for measuring cytotoxicity using a Dojindo Cytotoxicity Assay Cell counting Kit-8 (CCK-8). To measure the cell viability, 10 μL of CCK-8 was added to each well and the plate was incubated for 4 h. After incubation, the absorbance at 450 nm was measured using a UV plate reader. Cell growth in the presence of different drug concentrations was calculated relative to the value obtained in the absence of the drug. […] Serial dilutions of compounds were prepared in un-supplemented medium, and 110 μL of drug solution was aliquoted in duplicate into 900 μL cell suspensions. Control flasks were treated with 110 μL of un-supplemented medium. Cells were incubated under standard conditions for 48 h, sufficient to allow control cells to divide approximately four times. Growth inhibition was determined by counting the cells on a Z2 model Coulter Counter (Coulter Electronics Ltd, Luton, Beds, UK). The IC50 values were calculated using Graphpad Prism software (Graphpad Software, San Diego, Calif.). KB MTT Assay: KB cells were seeded in Falcons® 96 well plates (Becton-Dickinson Labware Europe, France) at a density of 1,500 cells/well in a volume of 0.18 mL culture medium and incubated under standard culture conditions for 24 h after seeding to allow entry into the exponential phase of cell growth. […] In each assay condition, control cells were treated with 20 μL of un-supplemented medium instead of drug. Cells were incubated for 96 h to allow control cells to divide approximately four times before cell viability was determined by MTT assay.

Series [4] relates to L1210 mouse leukemia cells. Description: cells. It counts as cell-based. The following applies: 48 h. The procedure:
as §1

For series [5], the system named is KB epithelial cells. Nature of the series: KB MTT assay (96 h). It counts as cell-based, human. As for the experimental part:
Human KB epithelial l cells: The human KB epithelial cell line was a gift from Dr Gerrit Jansen (University Free Hospital, Amsterdam, Netherlands) and was developed to overexpress the membrane folate binding protein (mFBP). Cells were cultured in RPMI 1640 medium without folic acid and supplemented with 10% heat inactivated dialyzed FCS (50 mL volume), 0.2 mL of 50 μg/mL gentamicin, 1 mL of 50 μg/mL amphotericin B, and 5 mL of 200 mM L-glutamine. The folate source, 20 nM (R,S)-LV, was added to supply cells with adequate growth conditions.
The cytotoxicity of MTX-peptide conjugates was evaluated in different cell lines, lincluding Molt-3 and L1210 T-cells, and KB epithelial cells. […] After 72 h of growth, the relative numbers of viable cells were determined according to the manufacture's protocols for measuring cytotoxicity using a Dojindo Cytotoxicity Assay Cell counting Kit-8 (CCK-8). To measure the cell viability, 10 μL of CCK-8 was added to each well and the plate was incubated for 4 h. After incubation, the absorbance at 450 nm was measured using a UV plate reader. Cell growth in the presence of different drug concentrations was calculated relative to the value obtained in the absence of the drug. […] Growth inhibition was determined by counting the cells on a Z2 model Coulter Counter (Coulter Electronics Ltd, Luton, Beds, UK). The IC50 values were calculated using Graphpad Prism software (Graphpad Software, San Diego, Calif.). […] Cells were incubated for 96 h to allow control cells to divide approximately four times before cell viability was determined by MTT assay.
The number of viable cells after a 96-h incubation was determined by assessing their ability to reduce MTT ([…]). […] The absorbance of the solution in each well was measured at 540 nm on a MCC/340 model Titertak Multiscan® plate reader (Labsystems/Flow Laboratories, Oxfordshire, UK). The results were analyzed using Ascent Research software v.2.1 (Labsystems, UK).

The subject of series [6] is dihydrofolate reductase enzyme (DHFR). Nature of the series: DHFR inhibition assay (spectrophotometric NADPH loss, Dixon plots). It counts as biochemical. As for the experimental part:
Into a 2.0 mL cuvette, a 1.0 mL solution of 0.11 mM β-NADPH and 33 μL of 2.3 mM DHFA were aliquoted and allowed to equilibrate. […] To begin the assay, 33 μL of DHFR (0.12-0.25 unit/mL with 0.1% BSA) was added to the reaction mixture. The absorbance of the reaction mixture was then recorded continuously for 5 min at 340 nm and the enzyme activity was determined by the rate of NADPH loss. Enzyme activity was determined for three different fixed concentrations of substrate (0.19, 1.9 and 10.0 mM DHFA).

In series [7] the test system is LFA-1 receptor on Molt-3 T-cells. Nature of the series: protection against MTX-cIBR toxicity in Molt-3 T-cells (LFA-1 mediated internalization, MTT). Format: cell-based, human. To be noted: similar experiment. The procedure:
As a control, some cells were left untreated. […] As a reference for minimal metabolic activity, 10 mM of the succinate dehydrogenase inhibitor iodoacetamide (IAA) was added to untreated wells. […] The tubes were spun to pellet the cells and the supernatant was carefully removed. The formazan crystals were dissolved in 200 μL of 0.04 N HCl in isopropanol; the tubes were sonicated for 5 min to completely dissolve crystals and then re-centrifuged to pelletize the cell debris. 100 μL aliquots of the supernatant solutions were removed and transferred to a 96-well microtiter plate. The optical density of the solution was measured at 570 nm using a UV plate reader.

“Also recorded” adds a separate entry of the source. Starred links: 1 amine or outer side, 2 acyl side, 3 side chain; linkers in the order of their positions; H or OH if unused. Positions of bridges follow the written chain, without caps; N, C: chain ends. Non-standard residues stand in square brackets, D forms with d. Residues, ends and D or L forms follow the SMILES beside them. *: point of attachment. DAMPA = CN(Cc1cnc2nc(N)nc(N)c2n1)c1ccc(C(=O)*)cc1; γGlu = O=C(O)[C@H](CCC(=O)[*:2])N[*:1]; Pen = CC(C)(S)[C@H](N)C(=O)O Where only a bound is given, the exact number is not on record here.

7 compounds from patent US20040037775A1, “Leukocyte internalized peptide-drug conjugates” (priority 2000, published 2004) can be followed below.

As usually defined, the IC50 is the concentration at which inhibition is half-maximal. A lower IC50 goes with greater potency.

Turning to cyclol,12-PenDLSTSLDDLRC [cLBE.L], the “concentration at which total growth inhibition emerged in Molt-3 cells” value in series [1] was 100 µM.
With cyclol,12-PenITDGEATDSGC [cLAB.L], the “concentration at which total growth inhibition emerged in Molt-3 cells” value in series [1] was found to be 100 µM. The “effect on adherence of Molt-3 T-cells to Calu-3 monolayers” value in series [2] is “significantly reduces”. In series [2] (IFN-γ-induced Calu-3 monolayers, BCECF labeled Molt-3 cells), the “inhibition of heterotypic cell adhesion” value was “about 40%”.
With `CC[C@H](C)[C@H](NC(=O)[C@@H](NC(=O)CC[C@H](NC(=O)c1ccc(N(C)Cc2cnc3nc(N)nc(N)c3n2)cc1)C(=O)O)C(C)C)C(=O)N[C@@H](CC(C)C)C(=O)N1CCC[C@H]1C(=O)N[C@@H](CCCNC(=N)N)C(=O)NCC(N)=O` [MTX-VILPRG] ({DAMPA-γGlu}-VILPRG-NH2), the IC50 in series [3] was determined as 9.12 ± 0.2 µM; in series [4], 0.7 ± 0.3 µM.
In the case of `CC[C@H](C)[C@@H]1NC(=O)[C@H](C(C)C)NC(=O)[C@H](CCCCN)NC(=O)[C@H](CO)NC(=O)[C@@H]2CCCN2C(=O)[C@H](CO)NC(=O)[C@H](C(C)C)NC(=O)[C@H](CO)NC(=O)[C@H]([C@@H](C)O)NC(=O)[C@H](CCC(N)=O)NC(=O)[C@@H](NC(=O)CC[C@H](NC(=O)c2ccc(N(C)Cc3cnc4nc(N)nc(N)c4n3)cc2)C(=O)O)C(C)(C)SSC[C@@H](C(=O)O)NC1=O` [MTX-cIBL] ({DAMPA-γGlu}-[Pen]QTSVSPSKVIC-OH; disulfide 1-12), the figures for the IC50 in series [3], in series [4] and in series [5] were 2.68 ± 0.2 µM, 9.14 ± 1 µM and > 10 µM, respectively. For the same compound, in series [6], the “Km relative to that of MTX” value is recorded as “approximately 4 fold”. In addition, the Ymax in series [6] (from Dixon plots) is 4.26 ± 0.07 × 10^−4.
Regarding `CC(C)C[C@@H]1NC(=O)[C@H](C(C)C)NC(=O)[C@H](CO)NC(=O)CNC(=O)CNC(=O)[C@H](CCCNC(=N)N)NC(=O)[C@@H]2CCCN2C(=O)[C@@H](N)C(C)(C)SSC[C@@H](C(=O)O)NC(=O)CNC(=O)[C@H]([C@@H](C)O)NC(=O)[C@H](C(C)C)NC1=O` [cIBR peptide] (H-[Pen]PRGGSVLVTGC-OH; disulfide 1-12), in series [7], the “effect on cytotoxicity of MTX-cIBR” value was “reduced the cytotoxicity of MTX-cIBR in a concentration dependent manner”.
On to `CC(C)[C@H](NC(=O)[C@H](CO)NC(=O)CNC(=O)CNC(=O)[C@H](CCCNC(=N)N)NC(=O)[C@@H]1CCCN1C(=O)CC[C@H](NC(=O)c1ccc(N(C)Cc2cnc3nc(N)nc(N)c3n2)cc1)C(=O)O)C(N)=O` [MTX-PRGGSV] ({DAMPA-γGlu}-PRGGSV-NH2), for which the IC50 came to 5.13 ± 0.6 µM in series [3] and 1.6 ± 0.4 µM in series [4].
For the compound “Xaa-Gly Val Asp Val Asp Glp Asp Gly Glu Thr-Cys [cLAB.2L, cyclic domain V peptide of LFA-1]”, the “effect on adherence of Molt-3 T-cells to Calu-3 monolayers” value in series [2] was “did not interfere; also recorded: no significant effect”.
